# Laboratory results as given in US20020155172A1, “Methods and compounds for decreasing cell toxicity or death” (priority 2000, published 2002).
# Experiments:
# [1] = tested on: HeLa cells transfected with a Q79-GFP construct; assay: Polyglutamine-induced cell death in HeLa cells; assay type: cell-based
# Method: FIG. 4A is two graphs showing the effect of Congo red, tetracyclines, and sulfated polyanions on polyglutamine-induced cell death in, each graph representing a separate experiment. HeLa cells transfected with a Q79-GFP construct were treated with 100 μM of minocycline (mino), Chrysamine G (CG), Rolitetracycline (Ro), iota carrageenan (iota), dextran 500 (dextran), or Congo red (CR), six hours after transfection. The amount of cell death was determined 48 hours after transfection by morphological criteria as previously described (Sanchez et al., supra).
# In a cell expressing Q79-GFP polypeptides, polyglutamine aggregates are formed and the cell dies by apoptosis (Sanchez, supra). Cell viability was determined by morphological criteria characteristic of apoptosis, including cell blebbing, shrinking. Total cell lysates and tissue homogenates were obtained using Buffer A: 1% triton in PBS, containing 10 μg/ml DNAse and protease inhibitors; leupeptin 20 μg/ml, aprotinin 20 u/ml, and PMSF 100 mM. The proteins were separated by 12% SDS/PAGE and transferred to PVDF Immobilon membrane (Millipore, Inc). Antibodies used included rabbit polyclonal antibodies; EM48 (Li et al., Mol. Neurobiol. 20:111-124, 2000) anti-heat shock proteins 40 and 70 (Stressgen, Co.), and rat monoclonal anti-caspase-8 antibody.
# These effects were determined by visual inspection of GFP-positive cells under an inverted fluorescence microscope. In addition, the occurrence of apoptosis of these transfected cell samples was confirmed by staining the cells with trypan blue, propidium iodide, or Hoescht 33342 to examine the cellular or nuclear morphology.
# Compounds that disrupt other types of aggregates, for example, amyloid fibril aggregates were tested for their ability to disrupt pre-formed polyglutamine aggregates. HeLa Cells were transfected with a Q79-GFP construct. Six hours later, Iota-carrageenan, dextran, minocycline, rolitetracycline, and Chrysamine G (1 nM to 100 μM) were each incubated with the cells. Seventy-two hours post-transfection, the cells were evaluated for the occurrence of cell death, by visual inspection under an inverted fluorescence microscope.
# RIP, FADD, and Daxx = assay: Apoptosis induced by overexpression of adapter proteins; assay type: cell-based
# Method: FIG. 5G is a graph of the effects of Congo red on cell death induced by adapter protein oligomerization (Daxx, RIP, FADD).
# (§1) HeLa cells expressing Q79 expanded polyglutamine repeats were treated with 100 μM Congo red, or 100 μM ZVAD (a positive control) for one hour prior to the addition of the apoptosis-inducing agent, and cell death was determined 48 hours later. […] Finally we tested whether Congo red can inhibit apoptosis induced by overexpression of caspase-1, -8, or -11.
# caspase-1, -8, or -11 = assay: Apoptosis induced by overexpression of caspases; assay type: cell-based
# Method: FIG. 5H is a graph of the effects of Congo red on cell death induced by caspase over-expression(caspases-8, -1, or -11).
# as §1
# R62 mice [2] = assay: Rotarod motor performance, second study; assay type: in vivo; settings: 10 rpm, maximum 210 seconds
# Source text: FIG. 10F is a graph of the effect of PBS (vehicle; delivered intraperitoneally (IP)) or Congo red, infused intraperitoneally (IP), by intracerebroventricular cannula (ICV) implanted into the predetermined coordinates on the left ventricle, or by both routes, on motor performance, as assessed by latency to fall measurements using a rotorod.
# (§2) In addition, the ability of Congo red to inhibit the formation as well as to disrupt preformed polyglutamine oligomers allowed us to examine the role of polyglutamine aggregates in neuronal dysfunction and degeneration characteristic of polyglutamine expansion diseases. In these studies, we used the animal model of Huntington's disease (R62), which expresses the truncated form of huntingtin with 139 CAG repeats Mangiarini et al. (supra). We took advantage of our finding that in addition to inhibiting polyglutamine oligomerization, Congo red also disrupts pre-formed oligomers, thus allowing assessment of the impact of Congo red on disease progression after formation of polyglutamine aggregates and the onset of symptoms. […]
# (§3) The initial abnormal neurological signs of R62 mice include dyskinesia of the hindlimbs when mice were suspended by the tail, and irregular gait. […] The effect of Congo red on motor performance in R62 mice was also assessed by rotarod studies. […]
# R62 mice [3] = assay: Survival; assay type: in vivo; settings: infused intraperitoneally
# Source text: FIG. 10G is a graph of the effect of PBS (vehicle; delivered intraperitoneally) or Congo red, infused intraperitoneally, on survival of HD transgenic mice.
# as §2, with “symptoms. R62 transgenic mice and CBAxC57B1/6 F1 wild type littermates were obtained from Jackson Laboratories (Bar Harbor, Me.) at the age of five weeks.” for “symptoms.”
# as §3
# R62 mice [4] = assay: EM48 immunostaining of polyglutamine aggregates in brain; assay type: in vivo
# Method: To test whether Congo red can disrupt and inhibit the formation of expanded polyglutamine oligomers in vivo, we analyzed the brain samples from control- and Congo red-treated […] mice. Mice were anesthetized with isoflurane, perfused intracardially with 4% paraformaldehyde in phosphate buffered saline (pH 7.4). The brain was removed and washed several times in PBS before overnight incubation in PBS containing 30% sucrose, and was then embedded in OTC (Sigma, MO.). Cryostat frozen sections were washed in PBS, and non-specific binding was blocked with 5% normal goat serum in PBS containing 0.1% Triton. Sections were stained using an anti-EM48 antibody at a 1:1000 dilution, and immunoreactivity was detected using the ABC kit, as described by the manufacturer (Vector, Co.). Some slides were lightly counter stained with hematoxylin.
smiles,measurement,setting,value
"Nc1c(/N=N/c2ccc(-c3ccc(/N=N/c4cc(S(=O)(=O)O)c5ccccc5c4N)cc3)cc2)cc(S(=O)(=O)O)c2ccccc12 [Congo red, diphenyldiazo-bis-alpha-napthylaminesulfonate]","cell death, as indicated by morphology","[1]; HA-tagged Q79-GFP, caspase-8 experiment",significantly inhibited ATP loss and cell death
same,Polyglutamine-induced Cell Death,"[1]; Q79-GFP, compound added six hours after transfection, 1 nM to 100 μM (FIG. 4A: 100 μM), seventy-two hours post-transfection",+ (Each + indicates approximately 20% cell death.)
same,"apoptosis induced by overexpression of RIP, FADD, or Daxx","RIP, FADD, and Daxx","had no effect on apoptosis induced by overexpression of RIP, FADD, or Daxx"
same,"apoptosis induced by overexpression of caspase-1, -8, or -11","caspase-1, -8, or -11",had no effect on caspase induced cell death
same,motor performance on rotarod,R62 mice [2],preserved
same,mean survival length,R62 mice [3],106 days
same,EM48 positive polyglutamine aggregates in the cortex and hippocampus,R62 mice [4]; R62 mice,reduction of EM48 positive polyglutamine aggregates
same,expanded polyglutamine repeats in the basal ganglia (EM48),R62 mice [4]; R62 mice 12.5 weeks old,Extensive clearance of expanded polyglutamine repeats
